According to the supplement of paper PMC13380429:

Assays:
A549-ACE2 [1] = assay: drug-induced phospholipidosis relative to tamoxifen; higher = more phospholipidosis
U2OS [2] = assay: drug sensitivity score (DSS) for viability; higher = more toxic; extreme values may be limits of the assay; conditions: 72 h
HepG2 [3] = assay: as above; conditions: 72 h
Caco-2 [4] = assay: as above; conditions: 72 h
Vero E6 [5] = assay: as above; conditions: 72 h
Calu-3 [6] = assay: as above; conditions: 72 h
[7] = system: A549-ACE2 infected with SARS-CoV-2; assay: cell count relative to DMSO; higher = less toxic; conditions: 24 h
HepG2 [8] = assay: relative viability EC50 (midpoint between 100% and the lowest measured viability); higher = less toxic; conditions: 72 h
Caco-2 [9] = assay: as above; conditions: 72 h
Vero E6 [10] = assay: as above; conditions: 72 h
Calu-3 [11] = assay: as above; conditions: 72 h
[12] = system: A549-ACE2 infected with SARS-CoV-2; assay: SARS-CoV-2 infection rate relative to DMSO; higher = more infection; conditions: 24 h
U2OS [13] = assay: cell viability relative to DMSO; higher = less toxic; conditions: 72 h
HepG2 [14] = assay: as above; conditions: 72 h
Caco-2 [15] = assay: as above; conditions: 72 h
Vero E6 [16] = assay: as above; conditions: 72 h
Calu-3 [17] = assay: as above; conditions: 72 h
[18] = system: A549-ACE2 infected with SARS-CoV-2; assay: morphology score (similarity to uninfected cells); higher = more like uninfected cells; conditions: 24 h
A549-ACE2 [19] = assay: phospholipidosis EC50; higher = less potent phospholipidosis inducer
U2OS [20] = assay: relative viability EC50 (midpoint between 100% and the lowest measured viability); higher = less toxic; conditions: 72 h

CN(C)c1ccc(-c2nc3c(N4CCN(CC(=O)Nc5nccs5)CC4)c(Cl)cnc3[nH]2)cc1
drug-induced phospholipidosis [%], A549-ACE2 [1]
Conditions | 0.3 µM | 0.833333 µM | 3.33333 µM | 6.66667 µM | 10 µM | 30 µM
24 h | 4.66 | -0.19 | 5.5 | 0.89 | 5.75 | 7.19
48 h | 6.88 | 1.34 | 2.05 | 1.71 | 1.43 | 6.09
72 h | 3.52 | -6.12 | -1.19 | 0.0519 | -2.06 | 6.76

Conditions | drug sensitivity score | relative viability EC50 [µM]
Caco-2 [4] | 0 | –
Caco-2 [9] | – | > 10
Calu-3 [6] | 0 | –
Calu-3 [11] | – | > 10
HepG2 [3] | 0 | –
HepG2 [8] | – | > 10
U2OS [2] | 2.8 | –
Vero E6 [5] | 0 | –
Vero E6 [10] | – | > 10

Conditions | SARS-CoV-2 infection rate, [12] [%] | cell count, [7] [%] | cell viability, Caco-2 [15] [%] | cell viability, Calu-3 [17] [%] | cell viability, HepG2 [14] [%] | cell viability, U2OS [13] [%] | cell viability, Vero E6 [16] [%] | morphology score, [18]
1 nM | – | – | 99.6 | 102 | 105 | 97.1 | 94.5 | –
10 nM | – | – | 103 | 95.7 | 105 | 90.9 | 97.6 | –
100 nM | – | – | 96.4 | 91.3 | 92 | 98 | 88.7 | –
0.3 µM | 94 | 101 | – | – | – | – | – | 0.26
1000 nM | – | – | 94.7 | 109 | 99.9 | 89.3 | 95.8 | –
3 µM | 101 | 97 | – | – | – | – | – | -0.1
10 µM | 96 | 97 | – | – | – | – | – | 0.16
10000 nM | – | – | 98.7 | 91.5 | 98.2 | 67.4 | 100 | –
30 µM | 65 | 83 | – | – | – | – | – | 0.47

COc1cc(-n2cnc3cc(-c4ccc(Cl)cc4)sc3c2=O)ccc1OCCN1CCCC1
drug-induced phospholipidosis [%], A549-ACE2 [1]
Conditions | 0.3 µM | 0.833333 µM | 3.33333 µM | 6.66667 µM | 10 µM | 30 µM
24 h | 0.98 | -0.51 | 19.1 | 56.7 | 87.1 | 172
48 h | 1.08 | -1.67 | 14.3 | 36.9 | 63.3 | 141
72 h | 2.44 | -3.52 | 9.91 | 23.8 | 43.5 | 111

Conditions | SARS-CoV-2 infection rate [%] | cell count [%] | cell viability [%] | morphology score | phospholipidosis EC50 [µM]
A549-ACE2 [19], 24 h | – | – | – | – | 12.9
A549-ACE2 [19], 48 h | – | – | – | – | 16.7
A549-ACE2 [19], 72 h | – | – | – | – | 21
Caco-2 [15], 1 nM | – | – | 111 | – | –
Caco-2 [15], 10 nM | – | – | 88.4 | – | –
Caco-2 [15], 100 nM | – | – | 104 | – | –
Caco-2 [15], 1000 nM | – | – | 103 | – | –
Caco-2 [15], 10000 nM | – | – | 88.7 | – | –
Calu-3 [17], 1 nM | – | – | 102 | – | –
Calu-3 [17], 10 nM | – | – | 102 | – | –
Calu-3 [17], 100 nM | – | – | 100 | – | –
Calu-3 [17], 1000 nM | – | – | 101 | – | –
Calu-3 [17], 10000 nM | – | – | 89.3 | – | –
HepG2 [14], 1 nM | – | – | 108 | – | –
HepG2 [14], 10 nM | – | – | 108 | – | –
HepG2 [14], 100 nM | – | – | 108 | – | –
HepG2 [14], 1000 nM | – | – | 93.9 | – | –
HepG2 [14], 10000 nM | – | – | 73.2 | – | –
U2OS [13], 1 nM | – | – | 92.4 | – | –
U2OS [13], 10 nM | – | – | 95.9 | – | –
U2OS [13], 100 nM | – | – | 95.7 | – | –
U2OS [13], 1000 nM | – | – | 102 | – | –
U2OS [13], 10000 nM | – | – | 90.6 | – | –
Vero E6 [16], 1 nM | – | – | 110 | – | –
Vero E6 [16], 10 nM | – | – | 104 | – | –
Vero E6 [16], 100 nM | – | – | 107 | – | –
Vero E6 [16], 1000 nM | – | – | 93.4 | – | –
Vero E6 [16], 10000 nM | – | – | 93.6 | – | –
[7], 0.3 µM | – | 104 | – | – | –
[7], 3 µM | – | 116 | – | – | –
[7], 10 µM | – | 120 | – | – | –
[7], 30 µM | – | 120 | – | – | –
[12], 0.3 µM | 98 | – | – | – | –
[12], 3 µM | 73 | – | – | – | –
[12], 10 µM | 20 | – | – | – | –
[12], 30 µM | 18 | – | – | – | –
[18], 0.3 µM | – | – | – | 0.28 | –
[18], 3 µM | – | – | – | 0.6 | –
[18], 10 µM | – | – | – | 0.87 | –
[18], 30 µM | – | – | – | 0.67 | –

Conditions | drug sensitivity score | relative viability EC50 [µM]
Caco-2 [4] | 0 | –
Caco-2 [9] | – | > 10
Calu-3 [6] | 0 | –
Calu-3 [11] | – | > 10
HepG2 [3] | 2 | –
U2OS [2] | 0 | –
U2OS [20] | – | > 10
Vero E6 [5] | 0 | –
Vero E6 [10] | – | > 10
